In publication PMC3625961 (Synapse (New York, N.Y.), 2011):
Positions count from the first letter of the chain named.

Assays:
CRF1 receptors = target: T1, CRF1 receptors (Rattus norvegicus, UniProt P35353); test: In vitro autoradiography competition with [125I]Sauvagine, rat frontal cortex; type: binding
T1 sequence (P35353 24-415): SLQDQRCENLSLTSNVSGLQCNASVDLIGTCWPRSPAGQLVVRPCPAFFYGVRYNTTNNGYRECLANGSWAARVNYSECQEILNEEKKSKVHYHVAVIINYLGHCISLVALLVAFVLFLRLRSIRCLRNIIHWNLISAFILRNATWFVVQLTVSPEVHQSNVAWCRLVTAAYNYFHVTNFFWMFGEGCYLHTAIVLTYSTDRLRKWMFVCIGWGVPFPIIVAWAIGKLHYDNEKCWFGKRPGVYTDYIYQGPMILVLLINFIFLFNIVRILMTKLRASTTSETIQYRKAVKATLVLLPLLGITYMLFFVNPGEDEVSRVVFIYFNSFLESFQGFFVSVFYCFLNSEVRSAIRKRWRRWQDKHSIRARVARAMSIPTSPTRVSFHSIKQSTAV

CRF1 receptor [1] = target: T2, CRF1 receptor (Macaca mulatta, UniProt Q76LL8); type: binding, rhesus monkey
T2 sequence (Q76LL8 24-415): T1 sequence (P35353 24-415) with R6H, N9S, T13A, V16I, V153M, A163G, V209I, H229Y, R356H

CRF2 R = CRF2 R (Rattus norvegicus, UniProt P47866); test: In vitro autoradiography competition with [125I]Sauvagine, rat choroid plexus; type: binding; settings: read-out: Rat choroid plexus Ki; [125I] Sauvagine 0.1 nM; n=3
CRF2 R, sequence (P47866 1-431 isoform P47866-2): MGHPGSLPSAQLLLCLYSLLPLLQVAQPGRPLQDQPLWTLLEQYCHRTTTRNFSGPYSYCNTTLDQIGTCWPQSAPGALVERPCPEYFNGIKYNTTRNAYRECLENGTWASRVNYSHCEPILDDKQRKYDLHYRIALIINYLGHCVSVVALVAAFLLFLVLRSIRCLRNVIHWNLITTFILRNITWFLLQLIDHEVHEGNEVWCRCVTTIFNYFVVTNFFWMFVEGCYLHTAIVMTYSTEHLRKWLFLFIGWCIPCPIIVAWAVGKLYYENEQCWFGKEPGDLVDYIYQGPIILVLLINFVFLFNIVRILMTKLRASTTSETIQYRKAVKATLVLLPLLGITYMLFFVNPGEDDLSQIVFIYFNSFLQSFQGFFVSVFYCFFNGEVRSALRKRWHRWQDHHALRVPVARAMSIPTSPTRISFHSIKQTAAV

CRF1 receptor [2] = target: T2, CRF1 receptor; test: In vitro autoradiography with radioligand; type: binding, rhesus monkey; settings: saturation, ROIs in monkey prefrontal/frontal cortex; n=3
P-gp = settings: ref Kiesewetter et al., 2003; cited from earlier work
[3] = monkey frontal cortex, [125I]o-CRH

For `COCCN(CCOC)c1nc(C)nc2c(-c3c(OC)cc(Br)cc3OC)c(C)nn12` [4-Br-BMK-152, [8-(4-bromo-2,6-dimethoxyphenyl)-2,7-dimethylpyrazolo[1,5-α][1,3,5]triazin-4-yl]-N,N-bis-(2-methoxyethyl)amine], the “greater affinity compared to o-CRH” value (CRF1 receptors; rat frontal cortex, [125I]Sauvagine) was 5 fold, the Ki (CRF1 receptors; read-out: Rat Frontal Cortex Ki, [125I] Sauvagine 0.1 nM, mean ± SD, n=3) was 0.15 ± 0.05 nM and the “greater affinity compared to 3-Br-BMK” value (CRF1 receptor [1]; [3]) was 70 fold. The “greater affinity compared to o-CRH” value (CRF1 receptor [1]; [3]) was 4 fold, the Ki (CRF1 receptor [1]; read-out: Rhesus Frontal Cortex Ki, [125I]-oCRH 0.125 nM, mean ± SD, n=3) was 0.35 ± 0.05 nM and the Ki (CRF2 R) was greater than 1000 nM.

Molecule `CC[C@H](C)[C@H](NC(=O)[C@H](CC(=O)O)NC(=O)[C@H](CC(C)C)NC(=O)[C@H](CC(C)C)NC(=O)[C@H](CCCCN)NC(=O)[C@H](CCCNC(=N)N)NC(=O)[C@H](CC(N)=O)NC(=O)[C@H](CO)NC(=O)[C@H](Cc1c[nH]cn1)NC(=O)[C@H](C)NC(=O)[C@H](CCC(N)=O)NC(=O)[C@H](CCC(N)=O)NC(=O)[C@H](C)NC(=O)[C@H](CC(C)C)NC(=O)[C@H](CCC(N)=O)NC(=O)[C@H](CC(=O)O)NC(=O)[C@H](C)NC(=O)[C@H](CCCCN)NC(=O)[C@@H](NC(=O)[C@H](CCSC)NC(=O)[C@H](CCC(=O)O)NC(=O)[C@H](CC(C)C)NC(=O)[C@@H](NC(=O)[C@H](CCC(=O)O)NC(=O)[C@H](CCCNC(=N)N)NC(=O)[C@H](CC(C)C)NC(=O)[C@H](CC(C)C)NC(=O)[C@H](Cc1c[nH]cn1)NC(=O)[C@H](Cc1ccccc1)NC(=O)[C@@H](NC(=O)[C@H](CC(C)C)NC(=O)[C@H](CC(=O)O)NC(=O)[C@H](CC(C)C)NC(=O)[C@H](CO)NC(=O)[C@@H](NC(=O)[C@@H]1CCCN1C(=O)[C@@H]1CCCN1C(=O)[C@H](CCC(=O)O)NC(=O)[C@H](CCC(N)=O)NC(=O)[C@H](CO)NC(=O)[C@@H](N)Cc1ccc(O)c(I)c1)[C@@H](C)CC)[C@@H](C)O)C(C)C)[C@@H](C)O)C(=O)N[C@@H](C)C(N)=O` [[^125I]o-CRH] has a Kd (CRF1 receptor [2]) of 0.68 ± 0.22 nM.

In the case of `CC(=O)O[C@H]1C(=O)[C@@]2(C)[C@H]([C@H](OC(=O)c3ccccc3)[C@]3(O)C[C@H](OC(=O)[C@H](O)[C@@H](NC(=O)c4ccccc4)c4ccccc4)C(C)=C1C3(C)C)[C@]1(OC(C)=O)CO[C@@H]1C[C@@H]2O` [paclitaxel], the “increase in P-gp KO mice compared to WT mice” value (P-gp) is listed as 640%.
